One data set has as its target T1, 5-HT2C receptor (Homo sapiens, UniProt P28335).
T1 construct: host or cells: U2OS
As to the kind of experiment: Human 5-HT2C functional assay (beta-arrestin2 recruitment, U2OS_HTR2C_β-Arrestin cells). The data set is classed as cell-based. The following applies: compounds used as acid addition salts; for EC50: U2OS_HTR2C_β-Arrestin cells, 1.5 h incubation, read-out: EC50 5-HT2C (potency in functional assay); for Emax: relative efficacy vs response to 10 µM 5-HT or maximal effect of 5-HT (100%). The method, then:
The functional activity of compounds of formula I was assayed by incubation with U2OS_HTR2C_β-Arrestin cells (DiscoverX, 93-0289C3) to induce beta-arrestin2 recruitment to the 5-HT2C receptor. The agonist-induced recruitment and proximity of the receptor and beta-arrestin2 leads to complementation and formation of active β-galactosidase. The enzyme complementation results in enzyme activity, which is measured following the termination of the agonist incubation using DiscoveRx's detection reagent, which contains a chemiluminescent substrate which produces a high intensity signal. Cells were plated and a medium-change to a 1% serum containing medium was performed 24 h later. The next day, test compounds were added and incubated for 1.5 h before addition of detection reagent.
The response produced was measured and compared with the response produced by 10 [mu]M 5-HT or the maximal effect induced by 5-HT (defined as 100%) to which it was expressed as a percentage response (relative efficacy). Dose response curves were con-structed using Graphpad Prism (Graph Software Inc.) or using in house adapted software using a 4 parameter dose response model with variable slope (fit=(Bottom+(Top−Bottom)/(1+10^((LogEC50−x)*Hill Slope))res=(y−fit)). Results are compiled in the table below.

Data set [1] can be described thus: Metabolic stability: unbound intrinsic clearance in liver microsomes. The format is in vitro ADME. As to conditions: rat; liver microsomes 0.25 mg protein/mL, 0.5 μM compound, pH 7.4, 37° C.; Cl int unbound=Cl int/fu mic; compounds used as acid addition salts; read-out: Cl int, mic unb. (r) (unbound intrinsic clearance). As to the method: Samples of the tested compounds (0.5 μM) were preincubated together with rat liver microsomes (0.25 mg of microsomal protein/mL) in 0.05 M potassium phosphate buffer of pH 7.4 in microtiter plates at 37° C. for 5 minutes. The reaction was started by adding NADPH (1.0 mM). After 0, 5, 10, 15, 20 and 30 minutes, an aliquot was removed, the reaction was cooled and stopped by adding twice the amount of quench solution consisting of acetonitrile/methanol 1:1, and containing […] carbutamide as internal standard. The samples were frozen until analyzed. The remaining concentration of undegraded test substance was determined by liquid chromatography-tandem mass spectrometry (LC-MS/MS). The half-life (t1/2) was determined from the gradient of the ratio of the signal of (test substance/internal standard)/unit time plot, allowing the calculation of the half-life of the test substance, assuming first order kinetics, from the decrease in the concentration of the compound with time. The microsomal clearance (mClint) was calculated as follows: mClint=((ln(2)/t 1/2)/Microsomal Protein Concentration (mg/ml))*1000, leading to the unit of uL/min/mg. The scaled clearance (mClin_scaled) was calculated as mCLint_scaled=m CLint*(Microsomal Yield (mg/kg BW))/1000000*60, leading to the units L/h/kg. The Microsomal Yield is defined by the specifics of the used microsomes. Calculations were modified from refer-ences: Di, The Society for Biomolecular Screening, 2003, 453-462; Obach, D M D, 1999 vol 27. N 11, 1350-1359.
A suspension of 0.25 mg/ml microsomal protein spiked with 0.5 μM of test compound was pipetted on one side of a HTDialysis device (HTDialysis LLC,37 Ledgewood Drive, Gales Fery Conn. 06335) separated by a membrane with a MWcut off 12-14 K. 50 mM K-Phosphate buffer (pH 7.4) was added on the other side of the well. After incubation at 37° C. for 4 h while shaking at 150 rpm, aliquots of both sides were taken, quenched with MeOH/ACN 1:1 and 0.2 μM of internal standard and frozen until analy-sis by LCMSMS.
Cl int unbound=Cl int/fu mic
The compounds were used in form of their respective acid addition salts.

Structures are written as SMILES.

T1 sequence (P28335 33-458): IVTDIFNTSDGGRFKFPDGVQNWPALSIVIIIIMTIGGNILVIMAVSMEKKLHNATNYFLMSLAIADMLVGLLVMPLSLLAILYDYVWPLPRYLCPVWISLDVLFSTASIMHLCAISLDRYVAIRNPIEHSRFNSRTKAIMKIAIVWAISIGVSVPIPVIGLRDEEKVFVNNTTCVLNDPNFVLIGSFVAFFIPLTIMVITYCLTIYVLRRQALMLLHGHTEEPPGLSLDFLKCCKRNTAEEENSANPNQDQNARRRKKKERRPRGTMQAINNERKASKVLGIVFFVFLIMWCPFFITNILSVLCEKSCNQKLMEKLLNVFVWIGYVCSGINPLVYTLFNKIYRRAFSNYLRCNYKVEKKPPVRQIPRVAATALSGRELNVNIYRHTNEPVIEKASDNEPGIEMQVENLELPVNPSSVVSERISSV
T1 sequence (P32121 whole entry partner): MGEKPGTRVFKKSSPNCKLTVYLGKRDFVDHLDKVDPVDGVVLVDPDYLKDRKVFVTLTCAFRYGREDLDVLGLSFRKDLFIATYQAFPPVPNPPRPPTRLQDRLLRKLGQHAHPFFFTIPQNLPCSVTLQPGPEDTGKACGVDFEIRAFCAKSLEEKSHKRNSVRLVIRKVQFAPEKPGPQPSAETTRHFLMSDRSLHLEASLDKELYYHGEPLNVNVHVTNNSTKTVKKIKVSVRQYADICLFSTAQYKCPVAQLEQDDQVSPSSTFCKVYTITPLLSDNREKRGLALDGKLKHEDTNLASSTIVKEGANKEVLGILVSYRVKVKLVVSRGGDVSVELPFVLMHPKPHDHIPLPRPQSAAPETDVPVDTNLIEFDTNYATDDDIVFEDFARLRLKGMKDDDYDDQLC

`COc1cc(OC2CCC(F)(F)CC2)c(F)cc1CNC(=O)[C@@H]1CCCN1C` [Example 40, (2S)—N-[[4-(4,4-Difluorocyclohexoxy)-5-fluoro-2-methoxy-phenyl]methyl]-1-methyl-pyrrolidine-2-carboxamide]: on 5-HT2C receptor, the 50% effective concentration (EC50) was 0.015 to 0.03 µM and the Emax is above 70%. Also, the CLint scaled at 0.5 μM in data set [1] was 30 to 80 L/h/kg.

Consider `COc1cc(OC2CCC(CF)CC2)c(F)cc1CNC(=O)[C@@H]1CCCN1` (stereo partly drawn) [Example 43, (2S)—N-[[5-Fluoro-4-[4-(fluoromethyl)cyclohexoxy]-2-methoxy-phenyl]methyl]-pyrrolidine-2-carboxamide], for which, on 5-HT2C receptor, the EC50 lay within 0.015 to 0.03 µM and the maximal effect (Emax) was above 70%. Further, the CLint scaled at 0.5 μM in data set [1] was below 30 L/h/kg.

With `COc1cc(OCc2ccc(C(F)(F)F)o2)c(F)cc1CNC(=O)[C@@H]1CCCN1` [Example 15, (2S)—N-[[5-fluoro-2-methoxy-4-[[5-(trifluoromethyl)-2-furyl]methoxy]phenyl]-methyl]pyrrolidine-2-carboxamide], on 5-HT2C receptor, the EC50 is 0.005 to 0.015 µM and the Emax is above 70%. In addition, the CLint scaled at 0.5 μM in data set [1] lay in the range of 80 to 250 L/h/kg.

Turning to `COc1cc(OCCc2ccc(C(F)(F)F)cc2)c(F)cc1CNC(=O)[C@@H]1CCCN1` [Example 14, (2S)—N-[[5-Fluoro-2-methoxy-4-[2-[4-(trifluoromethyl)phenyl]ethoxy]phenyl]-methyl]pyrrolidine-2-carboxamide], on 5-HT2C receptor, the EC50 fell in the range of 0.005 to 0.015 µM and the maximum response (Emax) was above 70%. The CLint scaled at 0.5 μM in data set [1] was 80 to 250 L/h/kg.

Take `COc1cc(OCc2ccnc(F)c2)c(F)cc1CNC(=O)[C@@H]1CCCN1` [Example 8, (2S)—N-[[5-fluoro-4-[(2-fluoro-4-pyridyl)methoxy]-2-methoxy-phenyl]methyl]-pyrrolidine-2-carboxamide]: at 5-HT2C receptor, the EC50 was in the range of 0.015 to 0.03 µM and the maximal effect (Emax) was above 70%. Besides, the CLint scaled at 0.5 μM in data set [1] is below 30 L/h/kg.

On to `COc1cc(OCc2c(F)ccc(F)c2Cl)c(F)cc1CNC(=O)[C@@H]1CCCN1` [Example 7, (2S)—N-[[4-[(2-Chloro-3,6-difluoro-phenyl)methoxy]-5-fluoro-2-methoxy-phenyl]-methyl]pyrrolidine-2-carboxamide], for which, at 5-HT2C receptor, the 50% effective concentration (EC50) fell in the range of 0.015 to 0.03 µM and the Emax is above 70%. The CLint scaled at 0.5 μM in data set [1] fell in the range of 80 to 250 L/h/kg.

`COc1cc(OCc2ccccc2F)c(F)cc1CNC(=O)[C@@H]1CCCN1` [Example 6, (2S)—N-[[5-Fluoro-4-[(2-fluorophenyl)methoxy]-2-methoxy-phenyl]methyl]-pyrrolidine-2-carboxamide]: at 5-HT2C receptor, the EC50 fell in the range of 0.015 to 0.03 µM and the Emax was above 70%. Moreover, in data set [1], the CLint scaled at 0.5 μM fell in the range of 80 to 250 L/h/kg.

For the molecule `COc1cc(O[C@H]2CC[C@@H](C(F)(F)F)CC2)c(F)cc1CNC(=O)[C@@H]1CCCN1` [Example 34, (S)—N-(5-Fluoro-4-((cis-4-trifluoromethyl-cyclohexyl)oxy)-2-methoxybenzyl)-pyrrolidine-2-carboxamide], on 5-HT2C receptor, the EC50 was in the range of 0.005 to 0.015 µM and the Emax is above 70%. The CLint scaled at 0.5 μM in data set [1] was in the range of 80 to 250 L/h/kg.

As to `COc1cc(OCCC(F)(F)C(F)(F)F)c(F)cc1CNC(=O)[C@@H]1CCCN1` [Example 24, (2S)—N-[[5-Fluoro-2-methoxy-4-(3,3,4,4,4-pentafluorobutoxy)phenyl]methyl]-pyrrolidine-2-carboxamide], on 5-HT2C receptor, the EC50 lay in the range of 0.005 to 0.015 µM and the Emax was above 70%. For the same molecule, the CLint scaled at 0.5 μM in data set [1] was below 30 L/h/kg.

Consider `COc1cc(O[C@H]2CC[C@H](C(F)(F)F)CC2)c(F)cc1CNC(=O)[C@@H]1CCCN1C` [Example 39, (2S)—N-(5-Fluoro-2-methoxy-4-((trans-4-(trifluoromethyl)cyclohexyl)oxy)benzyl)-1-methyl-pyrrolidine-2-carboxamide], for which, at 5-HT2C receptor, the 50% effective concentration (EC50) was in the range of 0.015 to 0.03 µM and the maximal effect (Emax) is above 70%. In addition, the CLint scaled at 0.5 μM in data set [1] is 30 to 80 L/h/kg.

Take `COc1cc(OCCc2ccc(F)cc2)c(F)cc1CNC(=O)[C@@H]1CCCN1` [Example 11, (2S)—N-[[5-Fluoro-4-[2-(4-fluorophenyl)ethoxy]-2-methoxy-phenyl]methyl]-pyrrolidine-2-carboxamide]: at 5-HT2C receptor, the EC50 was in the range of 0.005 to 0.015 µM and the Emax is above 70%. The CLint scaled at 0.5 μM in data set [1] is 80 to 250 L/h/kg.

For the molecule `COc1cc(OCCc2ccccc2F)c(F)cc1CNC(=O)[C@@H]1CCCN1` [Example 13, (2S)—N-[[5-Fluoro-4-[2-(2-fluorophenyl)ethoxy]-2-methoxy-phenyl]methyl]-pyrrolidine-2-carboxamide], at 5-HT2C receptor, the 50% effective concentration (EC50) is below 0.005 µM and the maximum response (Emax) is above 70%. The CLint scaled at 0.5 μM in data set [1] fell in the range of 80 to 250 L/h/kg.

For `COc1cc(OCCc2cccc(F)c2)c(F)cc1CNC(=O)[C@@H]1CCCN1` [Example 12, (2S)—N-[[5-Fluoro-4-[2-(3-fluorophenyl)ethoxy]-2-methoxy-phenyl]methyl]-pyrrolidine-2-carboxamide], at 5-HT2C receptor, the EC50 lay within 0.005 to 0.015 µM and the maximum response (Emax) was above 70%. Moreover, the CLint scaled at 0.5 μM in data set [1] was in the range of 80 to 250 L/h/kg.

Consider `COc1cc(OCC2CC(F)(F)C2)c(F)cc1CNC(=O)[C@@H]1CCCN1` [Example 29, (2S)—N-[[4-[(3,3-Difluorocyclobutyl)methoxy]-5-fluoro-2-methoxy-phenyl]methyl]-pyrrolidine-2-carboxamide], for which, on 5-HT2C receptor, the EC50 lay in the range of 0.005 to 0.015 µM and the Emax is above 70%. Besides, the CLint scaled at 0.5 μM in data set [1] is below 30 L/h/kg.

Regarding `COc1cc(OC2CCC(F)(F)CC2)c(F)cc1CNC(=O)[C@@H]1CCCN1` [Example 18, (2S)—N-[[4-(4,4-Difluorocyclohexoxy)-5-fluoro-2-methoxy-phenyl]methyl]-pyrrolidine-2-carboxamide], on 5-HT2C receptor, the concentration giving a half-maximal response (EC50) lay in the range of 0.005 to 0.015 µM and the maximal effect (Emax) is above 70%. For the same molecule, in data set [1], the CLint scaled at 0.5 μM was below 30 L/h/kg.

Regarding `COc1cc(O[C@H]2CC[C@H](C(F)(F)F)CC2)c(F)cc1CNC(=O)[C@@H]1CCN1` [Example 41, (2S)—N-[[5-Fluoro-2-methoxy-4-[trans 4-(trifluoromethyl)cyclohexoxy]phenyl]-methyl]azetidine-2-carboxamide], on 5-HT2C receptor, the EC50 is below 0.005 µM and the maximum response (Emax) is 50 to 70%. Further, the CLint scaled at 0.5 μM in data set [1] is below 30 L/h/kg.

`COc1cc(OCC(F)(F)C(F)C(F)(F)F)c(F)cc1CNC(=O)[C@@H]1CCCN1` (stereo partly drawn) [Example 21, (2S)—N-[[5-Fluoro-4-(2,2,3,4,4,4-hexafluorobutoxy)-2-methoxy-phenyl]methyl]-pyrrolidine-2-carboxamide]: on 5-HT2C receptor, the EC50 is below 0.005 µM and the maximal effect (Emax) is above 70%. Also, the CLint scaled at 0.5 μM in data set [1] is below 30 L/h/kg.

`COc1cc(OCC(F)(F)C(F)F)c(F)cc1CNC(=O)[C@@H]1CCCN1` [Example 20, (2S)—N-[[5-Fluoro-2-methoxy-4-(2,2,3,3-tetrafluoropropoxy)phenyl]methyl]-pyrrolidine-2-carboxamide]: on 5-HT2C receptor, the EC50 was below 0.005 µM and the maximal effect (Emax) is above 70%. For the same molecule, the CLint scaled at 0.5 μM in data set [1] was below 30 L/h/kg.

Take `COc1cc(OC2CC(F)(F)C2)c(F)cc1CNC(=O)[C@@H]1CCCN1` [Example 28, (2S)—N-[[4-(3,3-Difluorocyclobutoxy)-5-fluoro-2-methoxy-phenyl]methyl]-pyrrolidine-2-carboxamide]: at 5-HT2C receptor, the 50% effective concentration (EC50) lay in the range of 0.005 to 0.015 µM and the maximum response (Emax) is above 70%. Moreover, the CLint scaled at 0.5 μM in data set [1] is below 30 L/h/kg.

For `COc1cc(OCc2cc(F)cc(F)c2)c(F)cc1CNC(=O)[C@@H]1CCCN1` [Example 5, (2S)—N-[[4-[(3,5-Difluorophenyl)methoxy]-5-fluoro-2-methoxy-phenyl]methyl]-pyrrolidine-2-carboxamide], on 5-HT2C receptor, the concentration for a half-maximal effect (EC50) was below 0.005 µM and the maximal effect (Emax) is above 70%. Moreover, the CLint scaled at 0.5 μM in data set [1] fell in the range of 80 to 250 L/h/kg.

Values taken from US20200039930A1, “PROLINE AMIDE COMPOUNDS AND THEIR AZETIDINE ANALOGUES CARRYING A SPECIFICALLY SUBSTITUTED BENZYL RADICAL” (AbbVie Deutschland GmbH & Co. KG, priority 2017, published 2020).
